# Values joined by “and” are separate entries in the source; they are usually repeats but may differ in a detail not shown here. Identical values can stand only once. Records with an inconclusive call do not appear.
# System: Lewis lung carcinoma i.m., BDF1 mice, T/C %
# Test: NCI In Vivo Anticancer Drug Screen. Data for tumor model Lewis Lung Carcinoma (intramuscular) in B6D2F1 (BDF1) mice
# Summary of the method: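 Transplantable tumour model; readout survival or tumour size; value = treated (T) / vehicle control (C).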
compound,measurement,setting,value
CCc1nc(N)nc(N)c1-c1ccc(Cl)cc1,T/C,"endpoint: mean tumor weight, dose: 64.0 mg/kg/injection, schedule: Q01DX009 (ip), vehicle: Klucel (hydroxypropylcellulose) (HPC), higher = larger tumour",26 % of control
same,T/C,"endpoint: mean tumor weight, dose: 64.0 mg/kg/injection, schedule: Q01DX009 (sc), vehicle: Klucel (hydroxypropylcellulose) (HPC), higher = larger tumour",41 % of control
same,T/C,"endpoint: mean tumor weight, dose: 64.0 mg/kg/injection, schedule: Q04DX003 (ip), vehicle: Klucel (hydroxypropylcellulose) (HPC), higher = larger tumour",70 % of control and 93 % of control
same,T/C,"endpoint: mean tumor weight, dose: 64.0 mg/kg/injection, schedule: Q08DX002 (ip), vehicle: Klucel (hydroxypropylcellulose) (HPC), higher = larger tumour",72 % of control and 81 % of control
same,T/C,"endpoint: mean tumor weight, dose: 128.0 mg/kg/injection, schedule: Q01DX001 (ip), vehicle: Klucel (hydroxypropylcellulose) (HPC), higher = larger tumour",81 % of control
same,T/C,"endpoint: mean tumor weight, dose: 128.0 mg/kg/injection, schedule: Q01DX001 (oral), vehicle: Klucel (hydroxypropylcellulose) (HPC), higher = larger tumour",82 % of control
same,T/C,"endpoint: mean tumor weight, dose: 128.0 mg/kg/injection, schedule: Q01DX001 (sc), vehicle: Klucel (hydroxypropylcellulose) (HPC), higher = larger tumour",50 % of control
same,T/C,"endpoint: mean tumor weight, dose: 128.0 mg/kg/injection, schedule: Q04DX003 (ip), vehicle: Klucel (hydroxypropylcellulose) (HPC), higher = larger tumour",71 % of control
same,T/C,"endpoint: median survival time, dose: 2.0 mg/kg/injection, schedule: Q06HX008 (ip), vehicle: Klucel (hydroxypropylcellulose) (HPC), higher = longer survival",92 % of control
same,T/C,"endpoint: median survival time, dose: 4.0 mg/kg/injection, schedule: Q01DX009 (ip), vehicle: Klucel (hydroxypropylcellulose) (HPC), higher = longer survival",95 % of control
same,T/C,"endpoint: median survival time, dose: 4.0 mg/kg/injection, schedule: Q01DX009 (sc), vehicle: Klucel (hydroxypropylcellulose) (HPC), higher = longer survival",100 % of control
same,T/C,"endpoint: median survival time, dose: 4.0 mg/kg/injection, schedule: Q06HX004 (ip), vehicle: Klucel (hydroxypropylcellulose) (HPC), higher = longer survival",107 % of control
same,T/C,"endpoint: median survival time, dose: 4.0 mg/kg/injection, schedule: Q06HX008 (ip), vehicle: Klucel (hydroxypropylcellulose) (HPC), higher = longer survival",88 % of control and 104 % of control
same,T/C,"endpoint: median survival time, dose: 8.0 mg/kg/injection, schedule: Q01DX001 (sc), vehicle: Klucel (hydroxypropylcellulose) (HPC), higher = longer survival",104 % of control
same,T/C,"endpoint: median survival time, dose: 8.0 mg/kg/injection, schedule: Q01DX009 (ip), vehicle: Klucel (hydroxypropylcellulose) (HPC), higher = longer survival",104 % of control
same,T/C,"endpoint: median survival time, dose: 8.0 mg/kg/injection, schedule: Q01DX009 (oral), vehicle: Klucel (hydroxypropylcellulose) (HPC), higher = longer survival",104 % of control
same,T/C,"endpoint: median survival time, dose: 8.0 mg/kg/injection, schedule: Q04DX003 (ip), vehicle: Klucel (hydroxypropylcellulose) (HPC), higher = longer survival",94 % of control
same,T/C,"endpoint: median survival time, dose: 8.0 mg/kg/injection, schedule: Q06HX004 (ip), vehicle: Klucel (hydroxypropylcellulose) (HPC), higher = longer survival",109 % of control
same,T/C,"endpoint: median survival time, dose: 8.0 mg/kg/injection, schedule: Q06HX008 (ip), vehicle: Klucel (hydroxypropylcellulose) (HPC), higher = longer survival",100 % of control
same,T/C,"endpoint: median survival time, dose: 8.0 mg/kg/injection, schedule: Q06HX012 (ip), vehicle: Klucel (hydroxypropylcellulose) (HPC), higher = longer survival",107 % of control
same,T/C,"endpoint: median survival time, dose: 8.0 mg/kg/injection, schedule: Q08DX002 (ip), vehicle: Klucel (hydroxypropylcellulose) (HPC), higher = longer survival",94 % of control
same,T/C,"endpoint: median survival time, dose: 12.5 mg/kg/injection, schedule: Q01DX011 (ip), vehicle: steriod suspending solution, higher = longer survival",103 % of control
same,T/C,"endpoint: median survival time, dose: 16.0 mg/kg/injection, schedule: Q01DX001 (ip), vehicle: Klucel (hydroxypropylcellulose) (HPC), higher = longer survival",100 % of control
same,T/C,"endpoint: median survival time, dose: 16.0 mg/kg/injection, schedule: Q01DX001 (sc), vehicle: Klucel (hydroxypropylcellulose) (HPC), higher = longer survival",96 % of control
same,T/C,"endpoint: median survival time, dose: 16.0 mg/kg/injection, schedule: Q01DX009 (ip), vehicle: Klucel (hydroxypropylcellulose) (HPC), higher = longer survival",108 % of control
same,T/C,"endpoint: median survival time, dose: 16.0 mg/kg/injection, schedule: Q01DX009 (oral), vehicle: Klucel (hydroxypropylcellulose) (HPC), higher = longer survival",100 % of control
same,T/C,"endpoint: median survival time, dose: 16.0 mg/kg/injection, schedule: Q01DX009 (sc), vehicle: Klucel (hydroxypropylcellulose) (HPC), higher = longer survival",109 % of control
same,T/C,"endpoint: median survival time, dose: 16.0 mg/kg/injection, schedule: Q04DX003 (ip), vehicle: Klucel (hydroxypropylcellulose) (HPC), higher = longer survival",92 % of control and 100 % of control
same,T/C,"endpoint: median survival time, dose: 16.0 mg/kg/injection, schedule: Q06HX008 (ip), vehicle: Klucel (hydroxypropylcellulose) (HPC), higher = longer survival",98 % of control
same,T/C,"endpoint: median survival time, dose: 32.0 mg/kg/injection, schedule: Q01DX001 (ip), vehicle: Klucel (hydroxypropylcellulose) (HPC), higher = longer survival",102 % of control
same,T/C,"endpoint: median survival time, dose: 32.0 mg/kg/injection, schedule: Q01DX001 (oral), vehicle: Klucel (hydroxypropylcellulose) (HPC), higher = longer survival",104 % of control
same,T/C,"endpoint: median survival time, dose: 32.0 mg/kg/injection, schedule: Q01DX001 (sc), vehicle: Klucel (hydroxypropylcellulose) (HPC), higher = longer survival",104 % of control
same,T/C,"endpoint: median survival time, dose: 32.0 mg/kg/injection, schedule: Q04DX003 (ip), vehicle: Klucel (hydroxypropylcellulose) (HPC), higher = longer survival",92 % of control
same,T/C,"endpoint: median survival time, dose: 32.0 mg/kg/injection, schedule: Q08DX002 (ip), vehicle: Klucel (hydroxypropylcellulose) (HPC), higher = longer survival",86 % of control and 102 % of control
same,T/C,"endpoint: median survival time, dose: 64.0 mg/kg/injection, schedule: Q01DX001 (oral), vehicle: Klucel (hydroxypropylcellulose) (HPC), higher = longer survival",104 % of control
same,T/C,"endpoint: median survival time, dose: 64.0 mg/kg/injection, schedule: Q01DX001 (sc), vehicle: Klucel (hydroxypropylcellulose) (HPC), higher = longer survival",90 % of control and 100 % of control
same,T/C,"endpoint: median survival time, dose: 64.0 mg/kg/injection, schedule: Q01DX009 (sc), vehicle: Klucel (hydroxypropylcellulose) (HPC), higher = longer survival",104 % of control
same,T/C,"endpoint: median survival time, dose: 64.0 mg/kg/injection, schedule: Q04DX003 (ip), vehicle: Klucel (hydroxypropylcellulose) (HPC), higher = longer survival",96 % of control and 109 % of control
same,T/C,"endpoint: median survival time, dose: 128.0 mg/kg/injection, schedule: Q01DX001 (ip), vehicle: Klucel (hydroxypropylcellulose) (HPC), higher = longer survival",107 % of control
same,T/C,"endpoint: median survival time, dose: 128.0 mg/kg/injection, schedule: Q01DX001 (oral), vehicle: Klucel (hydroxypropylcellulose) (HPC), higher = longer survival",102 % of control
